Measured values from patent US9662308B2, “Orally bioavailable pentamidine prodrugs for the treatment of diseases” (Dritte Patentportfolio Beteiligungsgesellschaft mbH & Co. KG, priority 2008, dated 2017).
In brackets after ≈: the same amount, converted by molar mass. Like-named read-outs stand apart in the source and are kept apart here. Blank lines part the entries; values can stand above or below the compound they belong to.

Assays:
[1] = Solubility in 50 mM phosphate buffer (HPLC); conditions: for solubility at 20 min: 50 mM phosphate buffer, thermodynamic from solid
Procedure: […] Subsequently, the undissolved part was removed by centrifugation (12,000 rpm) and the samples were immediately measured by HPLC. The evaluation of the solubility ensued via a calibration of N,N′-bis(succinyloxy)pentamidine (1) in DMSO.
Solubilities were determined analogously to the method described for compound 1.

[2] = Procedure: For the stability analyses, a 0.1 mM solution of N,N′-bis(succinyloxy)pentamidine (1) was prepared in a 50 mM potassium phosphate buffer/DMSO (90/10, vol/vol). The analysis took place at pH values of 2.0, 7.4 and 9.0. One sample was taken and immediately analyzed by HPLC every 15 min over a period of 150 min.
(§1) The stability analyses were evaluated by means of the following HPLC method: […]

[3] = remark: listed apart in the source
Procedure: Further analyses were conducted with human and murine plasma. 900 μl of the plasma was mixed with 100 μl of a 2 mM solution of N,N′-bis(succinyloxy)pentamidine (1). The final concentration of N,N′-bis(succinyloxy)pentamidine (1) was thus 0.2 mM. The samples were incubated at 37° C. in a shaking water bath and samples were taken after 0, 15, 30, 45, 60, 75, 90, 105 and 120 min. For this purpose, 100 μl was drawn in each case and mixed with 100 μl acetonitrile. The samples were shaken, centrifuged for 5 min and the supernatant was measured by HPLC.
as §1

[4] = test system: 9000×g supernatants, microsomes and mitochondria of human liver and kidney tissues; format: in vitro ADME; conditions: pH 6.3
Procedure: The activation of the prodrug was determined in vitro by means of subcellular enzyme preparations. 9000×g of supernatants, microsomes and mitochondria of human and porcine liver and kidney tissues were used as the enzyme preparations. The incubation batches were composed of […] prodrug, 1 mM NADH, 1 U esterase and 0.3 mg enzyme preparation dissolved in 150 μ100 mM phosphate buffer, pH 6.3. The incubation took place over 20 min in a shaking water bath at 37° C. The incubation was terminated by adding 150 μl of acetonitrile. The samples were subsequently shaken for 10 min and the precipitated protein was removed by centrifuging at 10,000 RPM for 15 min. The supernatant was measured by means of HPLC.

[5] = remark: listed apart in the source
Procedure: Samples were stored at room temperature and 70° C. over a defined period and examined for analyzing the prodrug (1) storage stability. The storage period was 6 months for the room temperature samples, 7 days for the 70° C. samples. The prodrug (1) content was determined by means of HPLC. For this purpose, the samples were dissolved in a mixture of equal parts of methanol and phosphate buffer (20 mM, pH 7.4) and immediately measured. The HPLC method corresponds to the method described under “Characterization of the prodrugs”.

[6] = rat, in vivo
[7] = test system: trypanosomes; conditions: cited from earlier work
[8] = test system: leishmania; conditions: cited from earlier work
[9] = test system: plasmodia; conditions: cited from earlier work

Structure (SMILES): CC(=O)ON=C(N)c1ccc(OCCCCCOc2ccc(C(N)=NOC(C)=O)cc2)cc1 [N,N′-bis(acetoxy)pentamidine]
Solubility ([1]; pH 2.0): 14 ± 8 µM (≈ 6.39 µg/mL)
Solubility ([1]; pH 7.4): 2 ± 1 µM (≈ 0.913 µg/mL)
Solubility ([1]; pH 9.0): 3 ± 2 µM (≈ 1.37 µg/mL)

Solubility ([1]; pH 2.0): >35000 µM
Solubility ([1]; pH 7.4): 95 ± 8 µM (≈ 35.4 µg/mL)
Solubility ([1]; pH 9.0): 21 ± 3 µM (≈ 7.82 µg/mL)
Structure (SMILES): NC(=NO)c1ccc(OCCCCCOc2ccc(C(N)=NO)cc2)cc1 [N,N′-bis(dihydroxy)pentamidine]

Solubility ([1]; pH 2.0): 1304 ± 28 µM (≈ 522 µg/mL)
Solubility ([1]; pH 7.4): 8 ± 1 µM (≈ 3.2 µg/mL)
Solubility ([1]; pH 9.0): 10 ± 2 µM (≈ 4 µg/mL)
Structure (SMILES): CON=C(N)c1ccc(OCCCCCOc2ccc(C(N)=NOC)cc2)cc1 [N,N′-bis(methoxy)pentamidine]

Solubility [1]: 7500 µM (≈ 4290 µg/mL)
Solubility ([1]; pH 2): hydrolysis
Solubility in acidic medium ([1]; pH 2): in the mM range
Solubility ([1]; pH 7.4): 7500 ± 340 µM (≈ 4290 µg/mL)
Solubility ([1]; pH 9): 10780 ± 70 µM (≈ 6170 µg/mL)
Stability in the neutral and slightly alkaline pH range [2]: stable
Hydrolysis in aqueous medium ([2]; pH 2.0): rapid hydrolysis
Hydrolysis into monosuccinyl pentamidine and pentamidine diamidoxime (3) ([2]; pH 7.4): only to a minor extent
Hydrolysis into monosuccinyl pentamidine and pentamidine diamidoxime (3) ([2]; pH 9.0): only to a minor extent
Hydrolysis in plasma [3]: markedly
Pentamidine formation (conversion rate) [4]: 0.04 ± 0.01 nmol/min/mg
content pentamidine diamidoxime(3) ([5]; 70° C., 0 days): 0.4 ± 0.01% area %
content prodrug (1) ([5]; 70° C., 0 days): 98.4 area %
content succinyloxypentamidin ([5]; 70° C., 0 days): 1.0 ± 0.02% area %
content pentamidine diamidoxime(3) ([5]; 70° C., 1 day): 0.9 ± 0.01% area %
content prodrug (1) ([5]; 70° C., 1 day): 98.0 area %
content succinyloxypentamidin ([5]; 70° C., 1 day): 1.1 ± 0.03% area %
content pentamidine diamidoxime(3) ([5]; 70° C., 2 days): 1.0 ± 0.01% area %
content prodrug (1) ([5]; 70° C., 2 days): 97.6 area %
content succinyloxypentamidin ([5]; 70° C., 2 days): 1.3 ± 0.20% area %
content pentamidine diamidoxime(3) ([5]; 70° C., 4 days): 1.1 ± 0.01% area %
content prodrug (1) ([5]; 70° C., 4 days): 97.9 area %
content succinyloxypentamidin ([5]; 70° C., 4 days): 0.9 ± 0.01% area %
content pentamidine diamidoxime(3) ([5]; 70° C., 7 days): 1.5 ± 0.13% area %
content prodrug (1) ([5]; 70° C., 7 days): 97.4 area %
content succinyloxypentamidin ([5]; 70° C., 7 days): 1.1 ± 0.26% area %
content pentamidine diamidoxime(3) ([5]; room temperature, 0 months): 0.4 ± 0.01% area %
content prodrug (1) ([5]; room temperature, 0 months): 98.4 area %
content succinyloxypentamidine ([5]; room temperature, 0 months): 1.0 ± 0.02% area %
content pentamidine diamidoxime(3) ([5]; room temperature, 0.5 months): 0.5 ± 0.01% area %
content prodrug (1) ([5]; room temperature, 0.5 months): 98.4 area %
content succinyloxypentamidine ([5]; room temperature, 0.5 months): 1.0 ± 0.03% area %
content pentamidine diamidoxime(3) ([5]; room temperature, 1 month): 0.2 ± 0.02% area %
content prodrug (1) ([5]; room temperature, 1 month): 98.6 area %
content succinyloxypentamidine ([5]; room temperature, 1 month): 1.2 ± 0.16% area %
content pentamidine diamidoxime(3) ([5]; room temperature, 2 months): 0.6 ± 0.16% area %
content prodrug (1) ([5]; room temperature, 2 months): 97.5 area %
content succinyloxypentamidine ([5]; room temperature, 2 months): 1.8 ± 0.02% area %
content pentamidine diamidoxime(3) ([5]; room temperature, 3 months): 0.6 ± 0.01% area %
content prodrug (1) ([5]; room temperature, 3 months): 97.5 area %
content succinyloxypentamidine ([5]; room temperature, 3 months): 1.8 ± 0.04% area %
content pentamidine diamidoxime(3) ([5]; room temperature, 6 months): 0.5 ± 0.01% area %
content prodrug (1) ([5]; room temperature, 6 months): 97.8 area %
content succinyloxypentamidine ([5]; room temperature, 6 months): 1.5 ± 0.19% area %
Relative oral bioavailability [6]: up to 98%
Structure (SMILES): N=C(NOC(=O)CCC(=O)O)c1ccc(OCCCCCOc2ccc(C(=N)NOC(=O)CCC(=O)O)cc2)cc1 [N,N′-bis(succinyloxy)pentamidine (1), 4,4′-Pentamethylendioxy-bis-[N-(carboxypropionyloxy)]benzamidine]

Solubility ([1]; pH 2.0): >35000 µM
Solubility ([1]; pH 7.4): 157 ± 19 µM (≈ 89.6 µg/mL)
Solubility ([1]; pH 9.0): 84 ± 18 µM (≈ 47.9 µg/mL)
Structure (SMILES): CC(C)[C@H](N)C(=O)O/N=C(\N)c1ccc(OCCCCCOc2ccc(/C(N)=N/OC(=O)[C@@H](N)C(C)C)cc2)cc1 [N,N′-bis(valoxy)pentamidine]

solubility at 20 min ([1]; pH 2, aqueous buffer): 4210 ± 231 µM (≈ 1570 µg/mL)
solubility at 20 min ([1]; pH 7.4, aqueous buffer): 12 ± 1 µM (≈ 4.47 µg/mL)
solubility at 20 min ([1]; pH 9, aqueous buffer): 4 ± 1 µM (≈ 1.49 µg/mL)
Structure (SMILES): N/C(=N\O)c1ccc(OCCCCCOc2ccc(/C(N)=N/O)cc2)cc1 [Pentamidine diamidoxime (3), Pentamidine diamidoxime]

Solubility ([1]; pH 2.0): 22285 ± 1244 µM (≈ 7940 µg/mL)
Solubility ([1]; pH 7.4): 1370 ± 291 µM (≈ 488 µg/mL)
Solubility ([1]; pH 9.0): 1257 ± 40 µM (≈ 448 µg/mL)
Structure (SMILES): N=C(N)c1ccc(OCCCCCOc2ccc(C(N)=NO)cc2)cc1 [Pentamidine monoamidoxime]

Structure (SMILES): N=C(N)c1ccc(OCCCCCOc2ccc(C(=N)N)cc2)cc1 [Pentamidine]
IC50 [7]: 0.8 to 3.2 nM
IC50 [8]: 820 to 2590 nM
IC50 [9]: 35 to 129 nM
